# Marks after values point to notes of the source that are not given here.
# Key:
# [1] = test system: HMEC-1 human vascular endothelial cells
Structure (SMILES),Maximum Non-Cytotoxic Concentration HMEC-1 [1],Maximum Non-Hemolytic Concentration (blood) [%],Maximum Non-Cytotoxic Concentration L929 (L929 mouse fibroblasts),Concentrations with hemolytic properties (blood),Concentrations with no hemolytic properties (blood) [%]
O=C(O)CCCCCSCCC(F)(F)C(F)(F)C(F)(F)C(F)(F)C(F)(F)C(F)(F)C(F)(F)C(F)(F)F [2c3c],0.5%,0.25,0.25%,,
O=C(O)CCCC(=O)OCCC(F)(F)C(F)(F)C(F)(F)C(F)(F)C(F)(F)C(F)(F)F [2k3k],0.10** %,0.05,0.20** %,,
O=C(O)CCC(=O)OCCC(F)(F)C(F)(F)C(F)(F)C(F)(F)C(F)(F)C(F)(F)F [2i2i3h],0.1%,0.05,0.1%,,
O=C(O)CC(F)(F)C(F)(F)C(F)(F)C(F)(F)C(F)(F)C(F)(F)F [2p3e],0.25%,0.25,0.1%,,
O=C(O)CCCC(=O)OCCC(F)(F)C(F)(F)C(F)(F)C(F)(F)C(F)(F)C(F)(F)F [2k3e],0.01* %,0.05,0.10* %,,
O=C(O)C(CCC(F)(F)C(F)(F)C(F)(F)C(F)(F)C(F)(F)C(F)(F)C(F)(F)C(F)(F)F)C(=O)O [2s3e],0.25%,0.1,0.25%,,
O=C(O)CSCCC(F)(F)C(F)(F)C(F)(F)C(F)(F)C(F)(F)C(F)(F)C(F)(F)C(F)(F)F [2a3e],0.2%,0.25,0.2%,,
O=C(O)CCC(=O)OCCC(F)(F)C(F)(F)C(F)(F)C(F)(F)C(F)(F)C(F)(F)F [2i3c],0.10** %,0.02,0.10** %,,
O=C(O)CSCCC(F)(F)C(F)(F)C(F)(F)C(F)(F)C(F)(F)C(F)(F)C(F)(F)C(F)(F)F [2a3c],0.2%,0.2,0.2%,,
O=C(O)CCC(=O)OCCC(F)(F)C(F)(F)C(F)(F)C(F)(F)C(F)(F)C(F)(F)F [2i3e],0.10** %,0.05,0.20** %,,
O=C(O)CCCC(=O)OCCC(F)(F)C(F)(F)C(F)(F)C(F)(F)C(F)(F)C(F)(F)C(F)(F)C(F)(F)F [2l3c],0.5%,>2.00,0.5%,,
O=C(O)CC(F)(F)C(F)(F)C(F)(F)C(F)(F)C(F)(F)C(F)(F)F [2p3c],0.1%,0.25,0.1%,,
O=C(O)CSCCC(F)(F)C(F)(F)C(F)(F)C(F)(F)C(F)(F)C(F)(F)C(F)(F)C(F)(F)F [2a3f],0.2%,>2.00,0.2%,,
O=C(O)CCCCCSCCC(F)(F)C(F)(F)C(F)(F)C(F)(F)C(F)(F)C(F)(F)C(F)(F)C(F)(F)F [2c3l],0.5%,0.02,0.25* %,,
O=C(O)CCC(=O)OCCC(F)(F)C(F)(F)C(F)(F)C(F)(F)C(F)(F)C(F)(F)C(F)(F)C(F)(F)F [2j3a],0.2%,>2.00,0.2%,,
O=C(O)CCCCCSCCC(F)(F)C(F)(F)C(F)(F)C(F)(F)C(F)(F)C(F)(F)C(F)(F)C(F)(F)F [2c3f],1%,0.01,<0.25%,above 0.05%,
O=C(O)CCCCCSCCC(F)(F)C(F)(F)C(F)(F)C(F)(F)C(F)(F)C(F)(F)C(F)(F)C(F)(F)F [2c3k],1%,0.05,0.25%,,
O=C(O)CCC(=O)OCCC(F)(F)C(F)(F)C(F)(F)C(F)(F)C(F)(F)C(F)(F)C(F)(F)C(F)(F)F [2j2j3h],1%,>2.00,0.25** %,,
O=C(O)CCC(=O)OCCC(F)(F)C(F)(F)C(F)(F)C(F)(F)C(F)(F)C(F)(F)C(F)(F)C(F)(F)F [2j3l],1%,>2.00,0.10** %,,
O=C(O)CCCC(=O)OCCC(F)(F)C(F)(F)C(F)(F)C(F)(F)C(F)(F)C(F)(F)F [2k3l],<0.25%,0.05,<0.25* %,,
O=C(O)CCCC(=O)OCCC(F)(F)C(F)(F)C(F)(F)C(F)(F)C(F)(F)C(F)(F)C(F)(F)C(F)(F)F [2l3l],>1.00%,>2.00,>1.00%,,
O=C(O)CCCC(=O)OCCC(F)(F)C(F)(F)C(F)(F)C(F)(F)C(F)(F)C(F)(F)F [2k3c],0.10* %,0.05,0.10* %,,
O=C(O)CSCCC(F)(F)C(F)(F)C(F)(F)C(F)(F)C(F)(F)C(F)(F)C(F)(F)C(F)(F)F [2a3a],1%,0.05,0.5%,,
O=C(O)CCC(=O)OCCC(F)(F)C(F)(F)C(F)(F)C(F)(F)C(F)(F)C(F)(F)F [2i3l],0.01** %,0.05,0.01** %,,
O=C(O)CCCCCSCCC(F)(F)C(F)(F)C(F)(F)C(F)(F)C(F)(F)C(F)(F)C(F)(F)C(F)(F)F [2c3e],1%,0.02,0.5%,,
O=C(O)CCCCCSCCC(F)(F)C(F)(F)C(F)(F)C(F)(F)C(F)(F)C(F)(F)C(F)(F)C(F)(F)F [2c3a],0.5%,0.02,0.5%,,
O=C(O)CCC(=O)OCCC(F)(F)C(F)(F)C(F)(F)C(F)(F)C(F)(F)C(F)(F)F [2i3k],0.1%,0.1,0.1%,,
O=C(O)CCC(=O)OCCC(F)(F)C(F)(F)C(F)(F)C(F)(F)C(F)(F)C(F)(F)C(F)(F)C(F)(F)F [2j3k],0.5%,1,0.50* %,,≤ 1

# Source: US20210369846A1 (priority 2018, published 2021)
